Reference: ChEMBL document CHEMBL4229435, “Synthesis and antimicrobial activity of β-carboline derivatives with N2-alkyl modifications” (2018)
Values after ≈ are worked out from the molar mass of the structure shown.

What was measured:
Type in all cases: functional
Staphylococcus aureus [1] = assay: Antimicrobial activity against methicillin-sensitive Staphylococcus aureus ATCC 25923 after 24 hrs by agar plate dilution method; conditions: ATCC 25923, 24 h
Escherichia coli = assay: Antimicrobial activity against Escherichia coli ATCC 25922 after 24 hrs by agar plate dilution method; conditions: ATCC 25922, 24 h
Candida albicans = assay: Antimicrobial activity against Candida albicans GAI 05108 after 24 hrs by agar plate dilution method; conditions: GAI 05108, 24 h
[Candida] intermedia = Antimicrobial activity against Candida intermedia GAI 15003 after 24 hrs by agar plate dilution method; conditions: Sungouiella intermedia, GAI 15003, 24 h
Pichia kudriavzevii = assay: Antimicrobial activity against Candida krusei ATCC 14243 after 24 hrs by agar plate dilution method; conditions: ATCC 14243, 24 h
Staphylococcus aureus [2] = assay: Antimicrobial activity against methicillin-resistant Staphylococcus aureus GAI 11112 after 24 hrs by agar plate dilution method; conditions: GAI 11112, 24 h
Staphylococcus aureus [3] = assay: Antimicrobial activity against methicillin-resistant Staphylococcus aureus GAI 10151 after 24 hrs by agar plate dilution method; conditions: GAI 10151, 24 h
Staphylococcus aureus [4] = assay: Antimicrobial activity against methicillin-resistant Staphylococcus aureus GAI 10152 after 24 hrs by agar plate dilution method; conditions: GAI 10152, 24 h
Staphylococcus aureus [5] = assay: Antimicrobial activity against methicillin-resistant Staphylococcus aureus GAI 10153 after 24 hrs by agar plate dilution method; conditions: GAI 10153, 24 h
Pseudomonas aeruginosa = assay: Antimicrobial activity against Pseudomonas aeruginosa GAI 12066 after 24 hrs by agar plate dilution method; conditions: GAI 12066, 24 h
Acinetobacter baumannii = assay: Antimicrobial activity against Acinetobacter baumannii GAI 07545 after 24 hrs by agar plate dilution method; conditions: GAI 07545, 24 h

| SMILES | MIC (Staphylococcus aureus [1]) | MIC (Escherichia coli) | MIC (Candida albicans) | MIC ([Candida] intermedia) | MIC (Pichia kudriavzevii) | MIC (Staphylococcus aureus [2]) | MIC (Staphylococcus aureus [3]) | MIC (Staphylococcus aureus [4]) | MIC (Staphylococcus aureus [5]) | MIC (Pseudomonas aeruginosa) | MIC (Acinetobacter baumannii) |
| --- | --- | --- | --- | --- | --- | --- | --- | --- | --- | --- | --- |
| C[n+]1ccc2c3ccccc3n(-n3c4ccccc4c4cc[n+](C)cc43)c2c1 | 125 µM | 1000 µM | 500 µM | 125 µM | 500 µM | 125 µM |  |  |  |  |  |
| Clc1ccc2c(c1)c1cc[n+](Cc3ccccn3)cc1n2-n1c2ccc(Cl)cc2c2cc[n+](Cc3ccccn3)cc21 | > 1000 µM | > 1000 µM | > 1000 µM | 500 µM | > 1000 µM |  | > 1000 µM | > 1000 µM | > 1000 µM | > 1000 µM | > 1000 µM |
| Clc1ccc2c(c1)c1cc[n+](Cc3ccccc3)cc1n2-n1c2ccc(Cl)cc2c2cc[n+](Cc3ccccc3)cc21 | 10 µM | 500 µM | 500 µM | 10 µM | 500 µM |  | 50 µM | 10 µM | 10 µM | > 1000 µM | 500 µM |
| C[n+]1ccc2c3cc(Cl)ccc3n(-n3c4ccc(Cl)cc4c4cc[n+](C)cc43)c2c1 | 50 µM | 500 µM | > 1000 µM | 50 µM | 500 µM |  | 500 µM | 50 µM | 50 µM | > 1000 µM | > 1000 µM |
| c1ccc2c(c1)c1ccncc1n2-n1c2ccccc2c2ccncc21 | > 1000 µM | > 1000 µM | > 1000 µM | 125 µM (≈ 41.8 µg/mL) | > 1000 µM | > 1000 µM |  |  |  |  |  |
| Clc1ccc2[nH]c3c[n+](Cc4ccccn4)ccc3c2c1 | > 1000 µM | > 1000 µM | > 1000 µM | 500 µM | > 1000 µM |  | > 1000 µM | > 1000 µM | > 1000 µM | > 1000 µM | > 1000 µM |
| C[n+]1ccc2c(c1)[nH]c1ccccc12 | > 1000 µM | 1000 µM | 500 µM | 125 µM | 125 µM | 1000 µM |  |  |  |  |  |
| Clc1ccc2[nH]c3c[n+](Cc4ccccc4)ccc3c2c1 | > 1000 µM | > 1000 µM | > 1000 µM | 10 µM | 500 µM |  | 500 µM | 500 µM | 500 µM | > 1000 µM | 500 µM |
| c1ccc2c(c1)[nH]c1cnccc12 [NORHARMANE] | > 1000 µM | 250 µM (≈ 42 µg/mL) | 125 µM (≈ 21 µg/mL) | 125 µM (≈ 21 µg/mL) | 125 µM (≈ 21 µg/mL) | 250 µM (≈ 42 µg/mL) |  |  |  |  |  |
| C[n+]1ccc2c(c1)[nH]c1ccc(Cl)cc12 [NOSTOCARBOLINE] | > 1000 µM | 500 µM | > 1000 µM | > 1000 µM | 50 µM |  | > 1000 µM | > 1000 µM | > 1000 µM | > 1000 µM | > 1000 µM |
